The text below walks through data of US20250179032A1, “HETEROCYCLIC INHIBITORS OF GLUT9 FOR TREATMENT OF DISEASE” (HORIZON THERAPEUTICS IRELAND DAC, priority 2022, published 2025).

A value given as a limit tells only on which side of the number the result lay.

For one experiment, the target named is T1, H. sapiens SLC2A9 variant 2 (GLUT9B) (Homo sapiens, UniProt Q9NRM0).
T1 sequence (Q9NRM0 1-511 isoform Q9NRM0-2): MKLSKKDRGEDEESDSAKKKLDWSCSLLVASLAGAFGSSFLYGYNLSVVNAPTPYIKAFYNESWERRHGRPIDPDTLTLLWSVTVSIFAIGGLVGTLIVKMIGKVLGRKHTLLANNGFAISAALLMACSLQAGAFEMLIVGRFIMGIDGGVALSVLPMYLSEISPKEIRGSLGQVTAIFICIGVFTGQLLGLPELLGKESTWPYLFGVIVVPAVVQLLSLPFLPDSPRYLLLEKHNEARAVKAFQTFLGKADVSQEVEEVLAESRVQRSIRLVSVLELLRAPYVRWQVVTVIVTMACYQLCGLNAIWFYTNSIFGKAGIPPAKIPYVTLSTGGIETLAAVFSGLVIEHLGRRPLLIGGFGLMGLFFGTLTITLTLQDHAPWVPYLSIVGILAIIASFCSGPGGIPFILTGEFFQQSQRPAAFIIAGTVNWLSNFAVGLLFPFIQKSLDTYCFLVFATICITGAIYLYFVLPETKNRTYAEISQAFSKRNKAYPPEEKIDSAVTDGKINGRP
Briefly: GLUT9 functional assay: uric acid uptake in HEK293T cells, allantoin formation by MS/MS as proxy of GLUT9B inhibition. To be noted: 15 minute assay; HEK293T cells stably expressing GLUT9B and transiently A. oryzae uricase; uric acid 0.3 mM, 37° C.; read-out: 15 min IC50. The class given is cell-based. A digest of the protocol:
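Inhibition of GLUT9B-mediated urate uptake read as reduced allantoin formation, measured by MS/MS against allantoin standards in HEK293T matrix with log-logistic fitting. Stable GLUT9B HEK293T cells carrying transfected A. oryzae uricase were incubated 15 or 60 min at 37° C with uric acid at Km (0.3 mM), pH 7.4 gluconate buffer.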
Regarding `COCCOc1ccc(-c2ncc(CCC(F)(F)F)nc2N2CCC(C(=O)O)CC2)cc1` [Compound 86, 1-(3-(4-(2-methoxyethoxy)phenyl)-6-(3,3,3-trifluoropropyl)pyrazin-2-yl)piperidine-4-carboxylic acid], the IC50 is 500 to 2000 nM.

On to `O=C(O)C1CCN(c2nc(CCC(F)(F)F)cnc2-c2cnc3c(c2)CCO3)CC1` [Compound 87, 1-(3-(2,3-dihydrofuro[2,3-b]pyridin-5-yl)-6-(3,3,3-trifluoropropyl)pyrazin-2-yl)piperidine-4-carboxylic acid], for which the IC50 was > 2000 nM.

Take `O=C(O)CC1CCN(c2nc(CCC(F)(F)F)cnc2-c2cc(F)c3occc3c2)C1` (stereo not shown) [Compound 88, 2-(1-(3-(7-fluorobenzofuran-5-yl)-6-(3,3,3-trifluoropropyl)pyrazin-2-yl)pyrrolidin-3-yl)acetic acid]: the concentration for half-maximal inhibition (IC50) lay in the range of 500 to 2000 nM.

Turning to `O=C(O)CCC1CN(c2nc(CCC(F)(F)F)cnc2-c2cc(F)c3occc3c2)C1` [Compound 89, 3-(1-(3-(7-fluorobenzofuran-5-yl)-6-(3,3,3-trifluoropropyl)pyrazin-2-yl)azetidin-3-yl)propanoic acid], the IC50 lay in the range of 500 to 2000 nM.

Take `O=C(O)CC1CN(c2nc(CCC(F)(F)F)cnc2-c2cc(F)c3occc3c2)C1` [Compound 90, 2-(1-(3-(7-fluorobenzofuran-5-yl)-6-(3,3,3-trifluoropropyl)pyrazin-2-yl)azetidin-3-yl)acetic acid]: the concentration for half-maximal inhibition (IC50) was in the range of 500 to 2000 nM.

`O=C(O)C1(O)CCN(c2nc(CCC(F)(F)F)cnc2-c2cc(F)c3occc3c2)CC1` [Compound 91, 1-(3-(7-fluorobenzofuran-5-yl)-6-(3,3,3-trifluoropropyl)pyrazin-2-yl)-4-hydroxypiperidine-4-carboxylic acid]: the IC50 is < 500 nM.

Consider `COC1(C(=O)O)CCN(c2nc(CCC(F)(F)F)cnc2-c2cc(F)c3occc3c2)CC1` [Compound 92, 1-(3-(7-fluorobenzofuran-5-yl)-6-(3,3,3-trifluoropropyl)pyrazin-2-yl)-4-methoxypiperidine-4-carboxylic acid], for which the IC50 is 500 to 2000 nM.

For the compound `N#CC1(C(=O)O)CCN(c2nc(CCC(F)(F)F)cnc2-c2cc(F)c3occc3c2)CC1` [Compound 93, 4-cyano-1-(3-(7-fluorobenzofuran-5-yl)-6-(3,3,3-trifluoropropyl)pyrazin-2-yl)piperidine-4-carboxylic acid], the IC50 was 500 to 2000 nM.

Take `O=C(O)C1C2CC1CN(c1nc(CCC(F)(F)F)cnc1-c1cc(F)c3occc3c1)C2` (stereo not shown) [Compound 94, 3-(3-(7-fluorobenzofuran-5-yl)-6-(3,3,3-trifluoropropyl)pyrazin-2-yl)-3-azabicyclo[3.1.1]heptane-6-carboxylic acid]: the IC50 is 500 to 2000 nM.

As for `O=C(O)C1CC2(CCN(c3nc(CCC(F)(F)F)cnc3-c3cc(F)c4occc4c3)CC2)C1` [Compound 95, 7-(3-(7-fluorobenzofuran-5-yl)-6-(3,3,3-trifluoropropyl)pyrazin-2-yl)-7-azaspiro[3.5]nonane-2-carboxylic acid], the concentration for half-maximal inhibition (IC50) is < 500 nM.

Consider `COCCOc1ccc(-c2ncc(CCC(F)(F)F)nc2N2CCC(C(=O)O)CC2)cn1` [Compound 97, 1-(3-(6-(2-methoxyethoxy)pyridin-3-yl)-6-(3,3,3-trifluoropropyl)pyrazin-2-yl)piperidine-4-carboxylic acid], for which the IC50 was > 2000 nM.

With `COCCOc1ncc(-c2ncc(CCC(F)(F)F)nc2N2CCC(C(=O)O)CC2)cc1F` [Compound 98, 1-(3-(5-fluoro-6-(2-methoxyethoxy)pyridin-3-yl)-6-(3,3,3-trifluoropropyl)pyrazin-2-yl)piperidine-4-carboxylic acid], the IC50 was > 2000 nM.

As to `O=C(O)C1CCN(c2nc(CCC(F)(F)F)cnc2-c2ccc(OCCO)cc2)CC1` [Compound 99, 1-(3-(4-(2-hydroxyethoxy)phenyl)-6-(3,3,3-trifluoropropyl)pyrazin-2-yl)piperidine-4-carboxylic acid], the IC50 was > 2000 nM.

With `COc1ccc(-c2ncc(CCC(F)(F)F)nc2N2CCC(OCC(=O)O)CC2)cc1` [Compound 100, 2-((1-(3-(4-methoxyphenyl)-6-(3,3,3-trifluoropropyl)pyrazin-2-yl)piperidin-4-yl)oxy)acetic acid], the IC50 is < 500 nM.

On to `O=C(O)CC1CC2(C1)CN(c1nc(CCC(F)(F)F)cnc1-c1ccc3occc3c1)C2` [Compound 101, 2-(2-(3-(benzofuran-5-yl)-6-(3,3,3-trifluoropropyl)pyrazin-2-yl)-2-azaspiro[3.3]heptan-6-yl)acetic acid], for which the IC50 is > 2000 nM.

On to `O=C(O)C1C[C@@H]2CN(c3nc(CCC(F)(F)F)cnc3-c3ccc4occc4c3)C[C@@H]2C1` (stereo partly drawn) [Compound 102, (3aR,6aS)-2-(3-(benzofuran-5-yl)-6-(3,3,3-trifluoropropyl)pyrazin-2-yl)octahydrocyclopenta[c]pyrrole-5-carboxylic acid], for which the IC50 fell in the range of 500 to 2000 nM.

With `COCCNc1ccc(-c2ncc(CCC(F)(F)F)nc2N2CCC(C(=O)O)CC2)cc1` [Compound 103, 1-(3-(4-((2-methoxyethyl)amino)phenyl)-6-(3,3,3-trifluoropropyl)pyrazin-2-yl)piperidine-4-carboxylic acid], the IC50 fell in the range of 500 to 2000 nM.

With `COCCN(C)c1ccc(-c2ncc(CCC(F)(F)F)nc2N2CCC(C(=O)O)CC2)cc1` [Compound 104, 1-(3-(4-((2-methoxyethyl)(methyl)amino)phenyl)-6-(3,3,3-trifluoropropyl)pyrazin-2-yl)piperidine-4-carboxylic acid], the IC50 is 500 to 2000 nM.

As to `O=C(O)C1CCN(c2nc(CCC(F)(F)F)cnc2-c2ccncc2)CC1` [Compound 105, 1-(3-(pyridin-4-yl)-6-(3,3,3-trifluoropropyl)pyrazin-2-yl)piperidine-4-carboxylic acid], the half-inhibitory concentration (IC50) is > 2000 nM.

On to `CN(C)S(=O)(=O)N1CCN(c2nc(CCC(F)(F)F)cnc2-c2ccc3occc3c2)CC1` [Compound 106, 4-(3-(benzofuran-5-yl)-6-(3,3,3-trifluoropropyl)pyrazin-2-yl)-N,N-dimethylpiperazine-1-sulfonamide], for which the IC50 was > 2000 nM.

For the compound `O=C(O)C1CCN(c2nc(CCCC(F)(F)F)cnc2-c2ccc3c(c2)CCO3)CC1` [Compound 107, 1-(3-(2,3-dihydrobenzofuran-5-yl)-6-(4,4,4-trifluorobutyl)pyrazin-2-yl)piperidine-4-carboxylic acid], the IC50 is < 500 nM.

In the case of `O=C(O)C1CCN(c2nc(CCCC(F)(F)F)cnc2-c2ccc3c(c2)OCO3)CC1` [Compound 108, 1-(3-(benzo[d][1,3]dioxol-5-yl)-6-(4,4,4-Trifluorobutyl)Pyrazin-2-yl)piperidine-4-carboxylic acid], the IC50 was < 500 nM.

Regarding `O=C(O)C1CCN(c2nc(CCCC(F)(F)F)cnc2-c2ccc3ncoc3c2)CC1` [Compound 109, 1-(3-(benzo[d]oxazol-6-yl)-6-(4,4,4-trifluorobutyl)pyrazin-2-yl)piperidine-4-carboxylic acid], the IC50 fell in the range of 500 to 2000 nM.

With `O=C(O)C1CCN(c2nc(CCCC(F)(F)F)cnc2-c2ccc3c(c2)OCCO3)CC1` [Compound 110, 1-(3-(2,3-dihydrobenzo[b][1,4]dioxin-6-yl)-6-(4,4,4-trifluorobutyl)pyrazin-2-yl)piperidine-4-carboxylic acid], the IC50 was in the range of 500 to 2000 nM.

For the compound `O=C(O)C1CCN(c2nc(CCCC(F)(F)F)cnc2-c2ccc(OCC3CC3)cc2)CC1` [Compound 111, 1-(3-(4-(cyclopropylmethoxy)phenyl)-6-(4,4,4-trifluorobutyl)pyrazin-2-yl)piperidine-4-carboxylic acid], the IC50 is < 500 nM.

Consider `O=C(O)C1CCN(c2nc(CCCC(F)(F)F)cnc2-c2ccc3c(c2)CCCO3)CC1` [Compound 112, 1-(3-(chroman-6-yl)-6-(4,4,4-trifluorobutyl)pyrazin-2-yl)piperidine-4-carboxylic acid], for which the IC50 fell in the range of 500 to 2000 nM.

As for `O=C(O)C1CCN(c2nc(CCCC(F)(F)F)cnc2-c2ccc(OC3CC3)cc2)CC1` [Compound 113, 1-(3-(4-cyclopropoxyphenyl)-6-(4,4,4-trifluorobutyl)pyrazin-2-yl)piperidine-4-carboxylic acid], the half-maximal inhibitory concentration (IC50) lay within 500 to 2000 nM.

Take `O=C(O)C1CCN(c2nc(CCCC(F)(F)F)cnc2-c2ccc3c(c2)NCCO3)CC1` [Compound 114, 1-(3-(3,4-dihydro-2H-benzo[b][1,4]oxazin-6-y)-6-(4,4,4-trifluorobutyl)pyrazin-2-yl)piperidine-4-carboxylic acid]: the IC50 fell in the range of 500 to 2000 nM.

As to `O=C1COc2ccc(-c3ncc(CCCC(F)(F)F)nc3N3CCC(C(=O)O)CC3)cc2N1` [Compound 115, 1-(3-(3-oxo-3,4-dihydro-2H-benzo[b][1,4]oxazin-6-yl)-6-(4,4,4-trifluorobutyl)pyrazin-2-yl)piperidine-4-carboxylic acid], the IC50 is > 2000 nM.

The experiment is the same for the next values; noted with them: 60 minute assay; HEK293T cells stably expressing GLUT9B and transiently A. oryzae uricase; uric acid 0.3 mM, 37° C.; read-out: 60 min IC50.
On to `O=C(O)C1CCN(c2nc(CCCOC(F)(F)F)cnc2-c2cc(F)c3occc3c2)CC1` [Compound 96, 1-(3-(7-fluorobenzofuran-5-yl)-6-(3-(trifluoromethoxy)propyl)pyrazin-2-yl)piperidine-4-carboxylic acid], for which the IC50 is < 500 nM.

For `O=C(O)C1CCN(c2nc(CCCC(F)(F)F)cnc2-c2ccc3c(c2)OCO3)CC1` [Compound 108, 1-(3-(benzo[d][1,3]dioxol-5-yl)-6-(4,4,4-Trifluorobutyl)Pyrazin-2-yl)piperidine-4-carboxylic acid], the IC50 is < 500 nM.
